According to patent US20250049698A1, “BIOACTIVE SERUM FRACTIONS FROM FRESH ROSE FLOWERS AND METHODS FOR THEIR PREPARATION AND USES” (ISP INVESTMENTS LLC, priority 2021, published 2025):

Assay: DPPH free radical scavenging assay
Assay type: biochemical
Conditions: positive control; dilution from 5% (w/v) stock solution
Description: DPPH assay provides an easy and rapid way to evaluate potential antioxidants. A free radical is an atom or molecule that has one or more unpaired electrons. The evidence is that reactive species of oxygen (O2-, H2O2, and NO2+) play an important role in inflammation, neurodegenerative disorders, and cancer, etc. Antioxidants can react with the nitrogen centered radical DPPH (2,2-Diphenyl-1-Picrylhydrazyl) and convert it to the non-radical 2,2-Diphenyl-1-Picrylhydrazine. The changes in color (from deep violet to light yellow) were read at 517 nm after 60 min of reaction using a UV/VIS Spectrophotometer. DPPH free radical scavenging method offers the first approach for evaluating the antioxidant potential of a compound or extract. DPPH free radical scavenging activity was determined to assess antioxidant activities for test articles by following protocol. DPPH (Sigma-Aldrich, 300267, St. Louis, MO, USA) solution of 0.06 mM in absolute methanol was prepared. Test articles with different concentrations (20 μl) were mixed with 180 μl of DPPH solution to obtain a total of 200 μl per well in a 96-well plate. After 60 min incubation at room temperature in the dark, the absorbance was measured at 517 nm by using a microplate spectrophotometer Biotek Synergy 2 (Biotek Instruments Inc, Winooski, VT, USA). […] The ability to scavenge DPPH radicle was calculated as % inhibition. […]

## O=C1O[C@H]([C@@H](O)CO)C(O)=C1O [L-(+)-ascorbic acid (Vitamin C), L-(+)-ascorbic acid]
  DPPH free radical scavenging IC50: 0.01 % (v/v)
